Test results taken from PMC8308777, “Small Molecule–Peptide Conjugates as Dimerization Inhibitors of Leishmania infantum Trypanothione Disulfide Reductase” (Pharmaceuticals, 2021).
Like-named read-outs stand apart in the source and are kept apart here.

Tests used:
[1] = target: T1, Leishmania infantum trypanothione disulfide reductase (LiTryR) (Leishmania infantum, UniProt A4HSF7); assay: LiTryR oxidoreductase activity assay (DTNB-coupled); type: biochemical; conditions: no preincubation; for IC50: modified DTNB-coupled assay, 26 °C, HEPES pH 7.5, HIS-LiTryR 7 nM, TS2 1 μM, NADPH 150 μM, inhibitor 0.1-25 μM, IC50 ± SE, three independent experiments in triplicate, read-out: IC50act, LiTryR oxidoreductase activity
T1 construct: HIS; made in house; host or cells: E. coli BL21 (DE3) Rossetta 2
Protocol: LiTryR oxidoreductase activity was assessed spectrophotometrically using a modified version of the DTNB-coupled assay, described by Hamilton et al.. Briefly, reactions were performed at 26 °C in 250 μL of HEPES buffer (pH 7.5, 40 mM) containing EDTA (1 mM), NADP^+ (30 μM), DTNB (25 μM), TS2 (1 μM), NADPH (150 μM), glycerol (0.02%), DMSO (1.75%), and recombinant HIS-LiTryR (7 nM). […] Reactions were started by addition of a mixture (50 μL/well) of the substrates (NADPH and TS2).
LiTryR oxidoreductase activity was monitored at 26 °C by an increase in absorbance at 412 nm in an EnSpire Multimode Plate Reader (PerkinElmer, Waltham, MA, USA). In this DTNB-coupled assay, one molecule of T(SH)2 reduces one molecule of DTNB, producing two TNB molecules. The TNB concentration was obtained by multiplying the absorbance values by 100 (50 μM TNB generates 0.5 arbitrary units of absorbance at 412 nm).
For IC50 determinations, the initial velocities were calculated from the slope of the initial linear part of the reaction curves. The initial velocities of the reaction progress curves in the presence of inhibitor (concentrations ranging from 0.1 to 25 μM) were normalized as a percentage with respect to the initial velocity in the presence of the inhibitor vehicle (DMSO). IC50 values were obtained by fitting these percentages to a nonlinear regression model with GraFit 6 software (Erithacus, Horley, Surrey, U.K.). All the assays were performed in triplicate.

[2] = target: T2, HIS-FLAG-tagged LiTryR dimer (Leishmania infantum, UniProt A4HSF7); assay: LiTryR dimer quantitation assay (ELISA); type: biochemical; conditions: 16 h at 37 °C; for IC50: HIS-FLAG-LiTryR 400 nM, Tris pH 8.0, 300 mM NaCl, compounds 25 to 3.1 μM, IC50 ± SE, three independent experiments in triplicate, read-out: IC50dim, LiTryR dimer quantitation
T2 construct: made in house; host or cells: E. coli BL21 (DE3) Rossetta 2
Protocol: The relative amount of the LiTryR dimeric form in the presence of the SMPCs was assessed using an enzyme-linked immunosorbent assay (ELISA), developed in our laboratory. Briefly, HIS-FLAG-tagged LiTryR (400 nM) was incubated in dimerization buffer (1 mL of 50 mM Tris pH 8.0 and 300 mM NaCl) for 16 h at 37 °C with vigorous shaking and in a humid atmosphere in the presence of the different compounds ranging from 25 to 3.1 μM. Following a 15 min centrifugation at 18,000× g and room temperature, the supernatants were added to the α-FLAG-coated plates (200 μL/well) and incubated for 30 min at 37 °C with vigorous shaking in a humid atmosphere. The plates were washed five times with TTBS buffer (2 mM Tris pH 7.6, 138 mM NaCl, and 0.1% Tween-20) and incubated with diluted monoclonal α-HIS horseradish peroxidase (HRP)-conjugated antibody (200 μL/well, 1:50,000, Abcam, Cambridge, UK) in fatty acid- and essentially globulin-free bovine serum albumin (5%) prepared in TTBS buffer for 1 h at room temperature. The plates were washed again five times and the o-phenylenediamine dihydrochloride substrate, prepared according to the manufacturer’s instructions, was added (100 μL/well). The enzymatic reactions were stopped after 5 min by addition of […] (100 μL/well) and the absorbances were measured at 490 nm in an EnSpire Multimode Plate Reader (PerkinElmer, Waltham, MA, USA).
For IC50 determinations, the absorbance values in the presence of different concentrations of inhibitor were normalized as a percentage with respect to the absorbance value in the presence of DMSO. The IC50 values were obtained by fitting these percentages to a nonlinear regression model with GraFit 6 software (Erithacus, Horley, Surrey, U.K.). The assays were carried out in triplicate and repeated three times.

[3] = qualitative, attributed to increased hydrophobicity of the adamantyl substituent

T2 sequence (A4HSF7 entry or part of it): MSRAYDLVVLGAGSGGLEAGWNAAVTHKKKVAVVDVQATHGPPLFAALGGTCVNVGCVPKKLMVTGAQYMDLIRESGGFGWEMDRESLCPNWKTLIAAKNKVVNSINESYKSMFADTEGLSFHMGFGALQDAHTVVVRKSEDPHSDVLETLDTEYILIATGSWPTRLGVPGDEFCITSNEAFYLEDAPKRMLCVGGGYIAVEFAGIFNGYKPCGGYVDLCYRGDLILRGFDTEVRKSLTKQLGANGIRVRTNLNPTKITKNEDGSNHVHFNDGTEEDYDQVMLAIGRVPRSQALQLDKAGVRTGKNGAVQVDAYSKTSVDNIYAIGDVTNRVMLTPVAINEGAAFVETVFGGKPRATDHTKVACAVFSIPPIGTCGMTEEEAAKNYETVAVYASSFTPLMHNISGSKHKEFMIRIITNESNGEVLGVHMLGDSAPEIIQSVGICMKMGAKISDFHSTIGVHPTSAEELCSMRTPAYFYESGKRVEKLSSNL
T1 sequence (A4HSF7 entry or part of it): as above

Which results are given for CC[C@H](C)[C@H](NC(=O)CNC(=O)[C@@H](NC(=O)[C@H](CO)NC(=O)[C@H](CCC(N)=O)NC(=O)[C@@H](NC(=O)[C@@H](NC(=O)[C@H](CCCCN)NC(=O)[C@@H]1CCCN1C(=O)COCCOCC[N+](C)(Cc1ccccc1)Cc1ccccc1)[C@@H](C)CC)[C@@H](C)CC)C(C)C)C(N)=O [compound 10, (Ph-CH2)2(Me)N^+-(CH2)2-O-(CH2)2-O-CH2-CO-NH-PKIIQSVGI-NH2 I^−]?
IC50 ([1]; SEM): 9.2 ± 1.1 µM; IC50 ([2]; SEM): 21.2 ± 3.5 µM

Which IC50 ([1]; SEM) does the source give for CC[C@H](C)[C@H](NC(=O)CNC(=O)[C@@H](NC(=O)[C@H](CO)NC(=O)[C@H](CCC(N)=O)NC(=O)[C@@H](NC(=O)[C@@H](NC(=O)[C@H](CCCCN)NC(=O)[C@@H]1CCCN1C(=O)COCCOCCNC(=O)Cc1ccc(-c2ccccc2)cc1)[C@@H](C)CC)[C@@H](C)CC)C(C)C)C(N)=O [1c, Biphenyl-CH2-CO-NH-(CH2)2-O-(CH2)2-O-CH2-CO-NH-PKIIQSVGI-NH2] here?
Its IC50 is 16.6 ± 3.8 µM.

What about the IC50 ([2]; SEM) of the same compound?
Its IC50 is 22.9 ± 1.4 µM.

What does the source list for CC[C@H](C)[C@H](NC(=O)CNC(=O)[C@@H](NC(=O)[C@H](CO)NC(=O)[C@H](CCC(N)=O)NC(=O)[C@@H](NC(=O)[C@@H](NC(=O)[C@H](CCCCN)NC(=O)[C@@H]1CCCN1C(=O)COCCOCC[N+](C)(C)Cc1ccccc1)[C@@H](C)CC)[C@@H](C)CC)C(C)C)C(N)=O [compound 9, (Ph-CH2)(Me)2N^+-(CH2)2-O-(CH2)2-O-CH2-CO-NH-PKIIQSVGI-NH2 I^−]?
IC50 ([1]; SEM): 18.3 ± 2.6 µM; IC50 [2]: > 25 µM; LiTryR dimer at 25 μM (%) [2]: 53.3%

Which IC50 ([1]; SEM) does the source give for CC[C@H](C)[C@H](NC(=O)CNC(=O)[C@@H](NC(=O)[C@H](CO)NC(=O)[C@H](CCC(N)=O)NC(=O)[C@@H](NC(=O)[C@@H](NC(=O)[C@H](CCCCN)NC(=O)[C@@H]1CCCN1C(=O)COCCOCCNC(=O)Cc1ccc2ccccc2c1)[C@@H](C)CC)[C@@H](C)CC)C(C)C)C(N)=O [1b, Naphthyl-CH2-CO-NH-(CH2)2-O-(CH2)2-O-CH2-CO-NH-PKIIQSVGI-NH2] here?
The IC50 was 18.2 ± 1 µM.

And the IC50 ([2]; SEM)?
Its IC50 is 8.7 ± 0.5 µM.

For CC[C@H](C)[C@H](NC(=O)CNC(=O)[C@@H](NC(=O)[C@H](CO)NC(=O)[C@H](CCC(N)=O)NC(=O)[C@@H](NC(=O)[C@@H](NC(=O)[C@H](CCCCN)NC(=O)[C@@H]1CCCN1C(=O)COCCNC(=O)CN1C(=O)c2cccc3cccc1c23)[C@@H](C)CC)[C@@H](C)CC)C(C)C)C(N)=O [2d], which IC50 ([1]; SEM) is on record?
The IC50 was 6.9 ± 1.9 µM.

What about the IC50 ([2]; SEM) of the same compound?
Its IC50 is 7.1 ± 0.1 µM.

Which results are given for CC[C@H](C)[C@H](NC(=O)CNC(=O)[C@@H](NC(=O)[C@H](CO)NC(=O)[C@H](CCC(N)=O)NC(=O)[C@@H](NC(=O)[C@@H](NC(=O)[C@H](CCCCN)NC(=O)[C@@H]1CCCN1C(=O)CN1C(=O)c2cccc3cccc1c23)[C@@H](C)CC)[C@@H](C)CC)C(C)C)C(N)=O [4d]?
IC50 ([1]; SEM): 8 ± 1.5 µM; IC50 ([2]; SEM): 7.1 ± 0.2 µM

For CC[C@H](C)[C@H](NC(=O)CNC(=O)[C@@H](NC(=O)[C@H](CO)NC(=O)[C@H](CCC(N)=O)NC(=O)[C@@H](NC(=O)[C@@H](NC(=O)[C@H](CCCCN)NC(=O)[C@@H]1CCCN1C(=O)COCCOCCNC(=O)CC12CC3CC(CC(C3)C1)C2)[C@@H](C)CC)[C@@H](C)CC)C(C)C)C(N)=O [1f, Adamantyl-CH2-CO-NH-(CH2)2-O-(CH2)2-O-CH2-CO-NH-PKIIQSVGI-NH2], which solubility [3] is on record?
The solubility was “decrease in solubility”.

What about the IC50 ([1]; SEM) of the same compound?
The IC50 was 7.6 ± 1.2 µM.

And the IC50 ([2]; SEM)?
Its IC50 is 8.1 ± 0.2 µM.

With CC[C@H](C)[C@H](NC(=O)CNC(=O)[C@@H](NC(=O)[C@H](CO)NC(=O)[C@H](CCC(N)=O)NC(=O)[C@@H](NC(=O)[C@@H](NC(=O)[C@H](CCCCN)NC(=O)[C@@H]1CCCN1C(=O)COCCOCCN(Cc1ccccc1)Cc1ccccc1)[C@@H](C)CC)[C@@H](C)CC)C(C)C)C(N)=O [compound 8, (Ph-CH2)2N-(CH2)2-O-(CH2)2-O-CH2-CO-NH-PKIIQSVGI-NH2] as the compound, how does the IC50 ([1]; SEM) read?
Its IC50 is 9.8 ± 2.3 µM.

What about the IC50 ([2]; SEM) of the same compound?
Its IC50 is 7.1 ± 0.5 µM.

Which results are given for CC[C@H](C)[C@H](NC(=O)CNC(=O)[C@@H](NC(=O)[C@H](CO)NC(=O)[C@H](CCC(N)=O)NC(=O)[C@@H](NC(=O)[C@@H](NC(=O)[C@H](CCCCN)NC(=O)[C@@H]1CCCN1C(=O)COCCOCCNC(=O)Cc1ccccc1)[C@@H](C)CC)[C@@H](C)CC)C(C)C)C(N)=O [1a, Ph-CH2-CO-NH-(CH2)2-O-(CH2)2-O-CH2-CO-NH-PKIIQSVGI-NH2]?
IC50 ([1]; SEM): 22 ± 0.7 µM; IC50 ([2]; SEM): 9.4 ± 0.1 µM

Which “LiTryR oxidoreductase activity at 25 μM (%)” value ([1]; at 25 μM, reliable IC50 could not be determined) does the source give for CC[C@H](C)[C@H](NC(=O)CNC(=O)[C@@H](NC(=O)[C@H](CO)NC(=O)[C@H](CCC(N)=O)NC(=O)[C@@H](NC(=O)[C@@H](NC(=O)[C@H](CCCCN)NC(=O)[C@@H]1CCCN1C(C)=O)[C@@H](C)CC)[C@@H](C)CC)C(C)C)C(N)=O [TRL38, Ac-PKIIQSVGI-NH2, reference compound] here?
Its value is 65.1%.

And the IC50 [1]?
The IC50 was greater than 25 µM.

What about the IC50 [2] of the same compound?
The IC50 was greater than 25 µM.

And the “LiTryR dimer at 25 μM (%)” value [2]?
The value was 61.4%.

Which IC50 ([1]; SEM) does the source give for CC[C@H](C)[C@H](NC(=O)CNC(=O)[C@@H](NC(=O)[C@H](CO)NC(=O)[C@H](CCC(N)=O)NC(=O)[C@@H](NC(=O)[C@@H](NC(=O)[C@H](CCCCN)NC(=O)[C@@H]1CCCN1C(=O)CCNC(=O)Cc1ccccc1)[C@@H](C)CC)[C@@H](C)CC)C(C)C)C(N)=O [3a, Ph-CH2-CO-NH-(CH2)2-CO-NH-PKIIQSVGI-NH2] here?
The IC50 was 20.6 ± 1.6 µM.

And the IC50 ([2]; SEM)?
Its IC50 is 12.7 ± 1.1 µM.

What does the source list for CC[C@H](C)[C@H](NC(=O)CNC(=O)[C@@H](NC(=O)[C@H](CO)NC(=O)[C@H](CCC(N)=O)NC(=O)[C@@H](NC(=O)[C@@H](NC(=O)[C@H](CCCCN)NC(=O)[C@@H]1CCCN1C(=O)COCCOCCNC(=O)CN1C(=O)c2cccc3cccc1c23)[C@@H](C)CC)[C@@H](C)CC)C(C)C)C(N)=O [1d]?
IC50 ([1]; SEM): 6.7 ± 0.4 µM; IC50 ([2]; SEM): 7.8 ± 0.1 µM

For CC[C@H](C)[C@H](NC(=O)CNC(=O)[C@@H](NC(=O)[C@H](CO)NC(=O)[C@H](CCC(N)=O)NC(=O)[C@@H](NC(=O)[C@@H](NC(=O)[C@H](CCCCN)NC(=O)[C@@H]1CCCN1C(=O)Cc1ccccc1)[C@@H](C)CC)[C@@H](C)CC)C(C)C)C(N)=O [4a, Ph-CH2-CO-NH-PKIIQSVGI-NH2], which IC50 ([1]; SEM) is on record?
Its IC50 is 10.3 ± 1.8 µM.

What about the IC50 ([2]; SEM) of the same compound?
The IC50 was 11.4 ± 0.1 µM.

Which IC50 ([1]; SEM) does the source give for CC[C@H](C)[C@H](NC(=O)CNC(=O)[C@@H](NC(=O)[C@H](CO)NC(=O)[C@H](CCC(N)=O)NC(=O)[C@@H](NC(=O)[C@@H](NC(=O)[C@H](CCCCN)NC(=O)[C@@H]1CCCN1C(=O)COCCNC(=O)Cc1ccccc1)[C@@H](C)CC)[C@@H](C)CC)C(C)C)C(N)=O [2a, Ph-CH2-CO-NH-(CH2)2-O-CH2-CO-NH-PKIIQSVGI-NH2] here?
The IC50 was 22.3 ± 1.5 µM.

What about the IC50 ([2]; SEM) of the same compound?
Its IC50 is 15 ± 0.6 µM.

For CC[C@H](C)[C@H](NC(=O)CNC(=O)[C@@H](NC(=O)[C@H](CO)NC(=O)[C@H](CCC(N)=O)NC(=O)[C@@H](NC(=O)[C@@H](NC(=O)[C@H](CCCCN)NC(=O)[C@@H]1CCCN1C(=O)COCCOCCNCc1ccccc1)[C@@H](C)CC)[C@@H](C)CC)C(C)C)C(N)=O [compound 7, Ph-CH2-NH-(CH2)2-O-(CH2)2-O-CH2-CO-NH-PKIIQSVGI-NH2], which IC50 ([1]; SEM) is on record?
The IC50 was 8.3 ± 1.4 µM.

And the IC50 ([2]; SEM)?
Its IC50 is 12.6 ± 0.6 µM.
